Test results taken from the supplement of paper PMC10307832.

Legend:
Test in all cases: relative viability (nuclei count vs DMSO), 5 days (fraction); higher = more cells survive
[1] = compound: CC[C@@H](C)CNCC(=O)N1CCC2=C([C@@H]1COC3=CC=CC(=C3)C)C=CS2 [RU-SKI 43] + CC(C)C[C@H](NC(=O)[C@H](Cc1ccccc1)NC(=O)c1cnccn1)B(O)O [Bortezomib] (partner 0.002 µM)
Procedure, shortened: (§1)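 The day after seeding in 1536-well plates, lung cancer cell lines were treated by pin tool with a single drug, or with a fixed anchor-drug dose together with five library-drug doses (not always all listed) in √10 steps. After 5 days, a combined fix-and-stain solution (final 0.05% Triton X-100, 1% formaldehyde, 1 ug/ml Hoechst) was added. Nuclei counted on 4× images gave relative viability as treated counts over vehicle counts, reported as the median of duplicate plates.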

[2] = compound: Cn1cc(-c2cnc3ccc4ccc(CS(=O)(=O)NCc5ccccn5)cc4c(=O)c3c2)cn1 [MK-8033] + Nc1nc2[nH]cc(CCc3ccc(C(=O)N[C@@H](CCC(=O)O)C(=O)O)cc3)c2c(=O)[nH]1 [Pemetrexed] (partner 0.2 µM)
Procedure, shortened: as §1

[3] = compound: CC[C@@H](C)CNCC(=O)N1CCC2=C([C@@H]1COC3=CC=CC(=C3)C)C=CS2 [RU-SKI 43] + C[C@]1(O)C[C@@H](c2nc(-c3ccc4ccc(-c5ccccc5)nc4c3)c3c(N)nccn32)C1 [Linsitinib] (partner 1 µM)
Procedure, shortened: as §1

[4] = compound: CCc1c2c(nc3ccc(OC(=O)N4CCC(N5CCCCC5)CC4)cc13)-c1cc3c(c(=O)n1C2)COC(=O)[C@]3(O)CC [Irinotecan] + CC(=O)c1c(C)c2cnc(Nc3ccc(N4CCNCC4)cn3)nc2n(C2CCCC2)c1=O [Palbociclib] (partner 0.5 µM)
Procedure, shortened: as §1

Cell Line	relative viability ([1]; first compound 0.1 µM)	relative viability ([1]; first compound 0.3162 µM)	relative viability ([1]; first compound 1 µM)	relative viability ([1]; first compound 3.162 µM)	relative viability ([1]; first compound 10 µM)	relative viability ([2]; first compound 0.02 µM)	relative viability ([2]; first compound 0.06325 µM)	relative viability ([2]; first compound 0.2 µM)	relative viability ([2]; first compound 0.6325 µM)	relative viability ([2]; first compound 2 µM)	relative viability ([3]; first compound 0.1 µM)	relative viability ([3]; first compound 0.3162 µM)	relative viability ([3]; first compound 1 µM)	relative viability ([3]; first compound 3.162 µM)	relative viability ([3]; first compound 10 µM)	relative viability ([4]; first compound 0.6325 µM)	relative viability ([4]; first compound 2 µM)	relative viability ([4]; first compound 6.325 µM)	relative viability ([4]; first compound 20 µM)
NCI-H520	0.572	0.798	0.721	0.667	0.597	0.625	0.697	0.607	0.652	0.602	0.94	0.906	0.929	0.996	0.848	0.224	0.242	0.214	0.146
BEN	0.815	0.819	1.24	0.769	0.665	0.924	0.694	0.752	0.765	0.758	1.02	1.2	1.15	0.965	0.922	0.45	0.448	0.387	0.534
A-427	1.05	0.95	1.05	–	0.896	0.936	0.976	0.941	0.946	1.05	1.08	1.22	1.13	–	1.01	0.499	0.487	0.292	0.132
EMC-BAC-2	1.14	1.13	1.11	1.11	1.04	0.453	0.406	0.46	0.419	0.439	0.811	0.982	0.895	0.838	0.851	0.387	0.346	0.337	0.248
NCI-H1975	0.441	0.421	0.464	0.4	0.34	0.263	0.259	0.276	0.281	0.288	0.985	1.1	0.951	0.996	0.869	0.304	0.557	0.314	0.219
NCI-H1755	0.978	1.14	1.04	0.941	0.986	0.481	0.394	0.383	0.336	0.375	1.02	1.13	1.05	1.02	0.993	0.405	0.446	0.438	0.486
NCI-H2023	0.88	1.21	1.04	1.15	0.932	0.21	0.211	0.216	0.22	0.222	0.597	0.748	0.661	0.675	0.697	0.503	0.385	0.248	0.077
EKVX	1.09	1.24	1.2	0.958	0.585	0.373	0.344	0.337	0.34	0.424	0.948	1.24	0.977	1.05	1	–	0.311	0.265	0.227
EPLC-272H	0.905	1.08	1.09	–	1.09	0.359	0.357	0.345	0.376	0.313	1.35	1.37	1.41	–	1.07	–	0.22	0.304	0.264
LCLC-97TM1	0.852	0.827	1.79	0.684	0.645	0.165	0.134	–	0.201	0.173	0.221	–	0.172	0.201	0.182	0.114	0.0978	0.113	0.108
NCI-H2085	1.03	1.08	1.1	0.995	0.988	0.722	0.767	0.862	0.874	0.875	0.929	0.875	1.01	0.917	0.772	0.461	0.344	0.382	0.358
COR-L23	1.18	0.714	1.12	1.14	1.03	0.2	0.197	0.219	0.212	0.197	0.971	0.847	0.815	0.83	1.09	0.155	0.218	0.184	0.105
HCC-15	1.12	1.28	1.2	1.08	1.11	0.222	0.221	0.236	0.237	0.194	0.964	1.1	0.988	0.946	0.882	0.41	0.346	0.182	0.141
RERF-LC-KJ	1.12	1.39	1.17	1.2	1.2	0.459	0.467	0.501	0.462	0.471	0.946	1.04	0.915	0.943	0.895	1.02	0.819	0.405	0.265
PC-3 [JPC-3]	0.848	0.747	0.82	0.881	0.827	1.07	–	0.99	1.1	1.07	0.885	0.956	1.03	1.02	0.866	0.566	0.557	0.529	0.338
NCI-H1355	1.21	1.29	1.18	1.21	1.2	1.03	0.996	0.965	1.05	1	0.941	0.864	0.844	0.97	0.84	–	0.393	0.215	0.206
NCI-H460	1.23	1.8	1.53	1.25	1.03	0.0659	0.0591	0.0606	0.0625	0.0649	0.789	1.84	1.08	1.02	0.695	0.0549	0.128	0.0851	0.0574

Cell Line	relative viability ([1]; first compound 0.1 µM)	relative viability ([1]; first compound 0.3162 µM)	relative viability ([1]; first compound 1 µM)	relative viability ([1]; first compound 3.162 µM)	relative viability ([1]; first compound 10 µM)	relative viability ([2]; first compound 0.02 µM)	relative viability ([2]; first compound 0.06325 µM)	relative viability ([2]; first compound 0.2 µM)	relative viability ([2]; first compound 0.6325 µM)	relative viability ([2]; first compound 2 µM)	relative viability ([3]; first compound 0.1 µM)	relative viability ([3]; first compound 0.3162 µM)	relative viability ([3]; first compound 1 µM)	relative viability ([3]; first compound 3.162 µM)	relative viability ([3]; first compound 10 µM)	relative viability ([4]; first compound 0.6325 µM)	relative viability ([4]; first compound 2 µM)	relative viability ([4]; first compound 6.325 µM)	relative viability ([4]; first compound 20 µM)
NCI-H2228	1.19	1.26	0.937	1.98	0.941	0.274	0.343	0.365	0.308	0.325	0.858	0.507	0.828	0.885	0.427	0.453	0.664	0.393	0.456
LCLC-103H	0.969	1.09	1.31	1.1	0.985	0.504	0.446	0.457	0.482	0.458	1.04	1.11	1.05	1.2	1.15	0.452	0.412	0.446	0.5
SK-LU-1	1.37	1.18	1.39	1.15	1.24	0.974	0.944	0.929	0.625	0.956	1.06	1.22	1.26	1.18	0.917	0.35	0.354	0.299	0.336
201T	1.09	1.09	1.17	1.12	1.07	0.306	0.348	0.301	0.291	0.312	1.07	1.02	1.07	1.17	1.03	0.403	0.343	0.265	0.22
NCI-H441	0.649	0.243	0.657	0.562	0.393	0.246	0.274	0.254	0.266	0.255	0.538	0.462	0.654	0.533	0.473	0.207	0.211	0.218	0.175
SW 1573	1.13	1.42	1.16	0.947	0.901	0.866	0.807	0.766	0.834	0.791	0.884	0.824	0.841	0.692	0.688	–	0.329	0.181	0.101
HOP-62	0.728	0.561	1.01	0.731	0.765	0.358	0.415	0.326	0.3	0.32	1.04	0.938	1.1	1.17	1.04	0.211	0.202	0.187	0.22
NCI-H1651	0.93	1.1	1.01	0.931	0.947	0.633	0.561	0.56	0.685	0.582	1.08	1.34	1.09	0.959	0.908	0.529	0.491	0.305	0.162
CAL-12T	0.967	1	1.3	0.961	0.964	1.26	1.18	1.12	1.35	1.18	0.726	0.873	0.877	0.827	0.771	0.316	0.344	0.251	0.197
NCI-H2126	1.15	1.25	1.23	1.12	1.08	0.674	0.661	0.613	0.689	0.649	0.683	0.698	0.717	0.762	0.702	0.342	0.242	0.323	0.381
NCI-H650	1.02	0.779	1.1	–	0.891	0.982	0.955	0.863	0.933	0.83	0.918	0.696	1.13	–	0.911	0.188	0.195	0.19	0.257
COR-L 105	0.893	0.726	0.83	0.963	0.616	1.22	0.744	1.14	1.12	1.05	0.955	1.08	1.02	1.08	0.945	0.407	0.395	0.454	0.3
NCI-H2347	0.951	1.16	1.01	0.976	0.994	0.462	0.423	0.434	0.356	0.415	1	1.19	1.07	0.94	1.01	0.397	0.459	0.456	0.465
PC-14	0.793	1.19	0.942	0.848	0.66	0.143	0.121	0.142	0.149	0.135	0.962	1	1.05	1.07	0.939	0.378	0.34	0.183	0.148
LOU-NH91	0.53	0.485	0.519	0.502	0.497	0.375	0.38	0.35	0.366	0.318	0.94	0.932	0.945	0.872	0.944	0.509	0.494	0.418	0.263
LXF-289	1.06	0.977	1.03	1.06	0.974	0.963	0.874	0.901	0.883	0.837	0.982	1.01	0.96	0.983	0.956	0.527	0.279	0.251	0.23
NCI-H2009	1.05	1.02	1.01	1.12	0.968	1.01	1.01	0.923	1.08	0.997	1.2	1.23	1.24	1.21	1.16	0.197	0.317	0.147	0.0702
